Experimental data reported in patent US8217049B2, “Use of type V phosphodiesterase inhibitors in the treatment of exercise induced pulmonary hemorrhage in the equine” (ANOxA Corp., priority 2006, dated 2012).
Values joined by “and” are separate entries in the source; they are usually repeats but may differ in a detail not shown here. Equal entries are not always repeated.

What was measured:
[1] = system: exercise induced pulmonary hemorrhage (EIPH); blood in the trachea; test: Endoscopic EIPH scoring (Pascoe et al. 1985) after maximum exercise, placebo-controlled crossover; format: in vivo; parameters: key: 0: Zero indicates an absence of EIPH; 1 to 4 indicated increasing amounts of blood observed endoscopically in the trachea; conditions: 10 μg/kg of E4021 prior to maximum exercise (>1,000 meters); videoendoscopy about 60 to 90 minutes after exercise; one value per individual horse (Horse 1-8) with previous EIPH; sesquihydrate
Procedure: (§1) Eight horses with previous evidence of EIPH were enrolled in the study. The candidate horses served as their own control and a predetermined rest period (no maximum exercise events) of one week was adhered to prior to initiation of the protocol. On initiation of the trial the subject horse received, prior to maximum exercise, either a dose of 10 μg/kg of weight of E4021 or a placebo. The eight horses were exercised in training/mock racing conditions at maximum intensity for greater than 1,000 meters followed by endoscopic exam/scoring about 60 to 90 minutes after the exercise event. Following exercise, the horses were examined with videoendoscopy for evidence of blood in the trachea about 60 minutes to 90 minutes after maximum exercise. The endoscope was passed to the level of the bifurcation of the trachea (carina) with images recorded on videotape.
An objective scoring system (Pascoe et al. 1985) was used to indicate the presence or absence of EIPH, as well as its severity, if present. […] Scoring was done by the veterinarian conducting the examination, then later by another individual using the recorded examination. […]
The E4021 was administered from vials containing 50 mg of E4021/30 ml. […] The Pl score was after placebo intervention and the post Tx Score was recorded after administration of E4021. […]

[2] = Untoward effects and systemic hemodynamics in the treated horses; format: in vivo, horse; conditions: eight horses, 10 μg/kg of E4021 prior to maximum exercise
Procedure: as §1

O.O.O.O=C([O-])C1CCN(c2nc(NCc3ccc4c(c3)OCO4)c3cc(Cl)ccc3n2)CC1.O=C([O-])C1CCN(c2nc(NCc3ccc4c(c3)OCO4)c3cc(Cl)ccc3n2)CC1.[Na+].[Na+] [E4021]
Post Tx (EIPH endoscopic score recorded after administration of E4021) [1]: 0 (3×) and 3 and 1 and 2
Untoward effects [2]: did not experience any untoward effects
Systemic hemodynamics (e.g. cardiac output, blood pressure) ([2]; versus controls): remained unchanged from controls
